Laboratory results: US9302999B2, “Substituted triazoles as herbicides” (E. I. DU PONT DE NEMOURS AND COMPANY, priority 2012, dated 2016)

Legend:
rice (Oryza sativa) = experiment: Test B flooded paddy: rice; format: in vivo; settings: Flood; 250 g ai/ha; applied to paddy water at 2-leaf stage; visually evaluated after 13 to 15 days
In short: (§1)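 Visual ratings on a 0–100 scale, where 0 means no effect and 100 means complete control, were assigned by comparison with controls 13 to 15 days after treatment. Compounds went into paddy water over 2-leaf plants flooded to 3 cm.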

[1] = system: sedge, umbrella (small-flower umbrella sedge Cyperus difformis); experiment: Test B flooded paddy: sedge, umbrella; format: in vivo; settings: Flood; 250 g ai/ha; applied to paddy water at 2-leaf stage; visually evaluated after 13 to 15 days
In short: as §1

[2] = system: winter wheat (Triticum aestivum); experiment: Test C pre-/postemergence: winter wheat; format: in vivo
In short: (§2)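 Preemergence on seeds in loam/sand, postemergence on 2–18 cm (1–4-leaf) plants in peat-based medium; compounds in non-phytotoxic solvent with surfactant. After 13–15 days in greenhouse, visual rating versus controls, 0 (no effect) to 100 (complete control).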

[3] = system: galium (catchweed bedstraw, Galium aparine); experiment: Test C pre-/postemergence: galium; format: in vivo
In short: as §2

corn (Zea mays) = experiment: Test C pre-/postemergence: corn; format: in vivo
In short: as §2

[4] = system: lambsquarters (Chenopodium album); experiment: Test C pre-/postemergence: lambsquarters; format: in vivo
In short: as §2

[5] = system: morningglory (Ipomoea coccinea); experiment: Test C pre-/postemergence: morningglory; format: in vivo
In short: as §2

[6] = system: velvetleaf (Abutilon theophrasti); experiment: Test C pre-/postemergence: velvetleaf; format: in vivo
In short: as §2

Barnyardgrass = experiment: Test C postemergence: barnyardgrass; format: in vivo, Echinochloa crus-galli
In short: (§3)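 Visual 0–100 injury score vs untreated controls (0 none, 100 complete control), taken 13–15 d after treatment. Postemergence spray on potted plants, 2–18 cm, 1–4 leaves; greenhouse.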

Waterhemp [7] = experiment: Test C postemergence: waterhemp; format: in vivo; settings: 62 g ai/ha, scale 0 to 100 (0 no effect, 100 complete control)
In short: as §3

Oilseed Rape = experiment: Test C preemergence: oilseed rape; format: in vivo; settings: 62 g ai/ha, scale of 0 to 100, 0 is no effect, 100 is complete control
Waterhemp [8] = experiment: Test C pre-/postemergence: waterhemp; format: in vivo; settings: Postemergence, 31 g ai/ha; scale 0 to 100 (0 no effect, 100 complete control)
[9] = Postemergence, 31 g ai/ha, scale 0 to 100 (0 no effect, 100 complete control)
[10] = Postemergence, 62 g ai/ha, scale 0 to 100 (0 no effect, 100 complete control)
[11] = Postemergence, 125 g ai/ha, scale 0 to 100, 0 no effect, 100 complete control
[12] = Postemergence, 250 g ai/ha, scale 0 to 100 (0 no effect, 100 complete control)
[13] = Preemergence, 31 g ai/ha, scale 0 (no effect) to 100 (complete control)
[14] = Preemergence, 62 g ai/ha, scale of 0 to 100, 0 is no effect, 100 is complete control
[15] = Preemergence, 125 g ai/ha, scale 0 to 100, 0 no effect, 100 complete control
[16] = Preemergence, 250 g ai/ha, scale 0 to 100, 0 no effect, 100 complete control
[17] = Postemergence, 250 g ai/ha, scale 0 to 100
[18] = 31 g ai/ha, scale 0 to 100 (0 no effect, 100 complete control)
[19] = 62 g ai/ha, scale 0 to 100 (0 no effect, 100 complete control)

## CCCc1nn(-c2ccc(C(F)(F)F)cc2)nc1Oc1ccnc(C(F)(F)F)c1 [Compound 170]
Rice (Oryza sativa)
  Plant response rating, Rice (0 to 100 scale, 0 is no effect, 100 is complete control): 60
[1]
  Plant response rating, Sedge, Umbrella (0 to 100 scale, 0 is no effect, 100 is complete control): 90
[2]; [9]
  Plant response rating, Wheat: 10
[2]; [10]
  Plant response rating, Wheat: 20
[2]; [11]
  Plant response rating, Wheat: 35
[2]; [12]
  Plant response rating, Wheat: 35
[2]; [13]
  Plant response rating, Wheat: 10
[2]; [14]
  Plant response rating, Wheat: 40
[2]; [15]
  Plant response rating, Wheat: 60
[2]; [16]
  Plant response rating, Wheat: 60
[3]; [9]
  Plant response rating, Galium: 80
[3]; [10]
  Plant response rating, Galium: 90
[3]; [11]
  Plant response rating, Galium: 90
[3]; [12]
  Plant response rating, Galium: 90
[3]; [13]
  Plant response rating, Galium: 98
[3]; [14]
  Plant response rating, Galium: 100
[3]; [15]
  Plant response rating, Galium: 100
[3]; [16]
  Plant response rating, Galium: 100
Corn (Zea mays); [9]
  Plant response rating, Corn: 15
Corn (Zea mays); [10]
  Plant response rating, Corn: 25
Corn (Zea mays); [11]
  Plant response rating, Corn: 30
Corn (Zea mays); [17]
  Plant response rating, Corn: 30
Corn (Zea mays); [13]
  Plant response rating, Corn: 5
Corn (Zea mays); [14]
  Plant response rating, Corn: 10
Corn (Zea mays); [15]
  Plant response rating, Corn: 15
Corn (Zea mays); [16]
  Plant response rating, Corn: 60
[4]; [9]
  Plant response rating, Lambsquarters: 85
[4]; [10]
  Plant response rating, Lambsquarters: 95
[4]; [11]
  Plant response rating, Lambsquarters: 95
[4]; [12]
  Plant response rating, Lambsquarters: 98
[4]; [13]
  Plant response rating, Lambsquarters: 85
[4]; [14]
  Plant response rating, Lambsquarters: 85
[4]; [15]
  Plant response rating, Lambsquarters: 98
[4]; [16]
  Plant response rating, Lambsquarters: 98
[5]; [9]
  Plant response rating, Morningglory: 75
[5]; [10]
  Plant response rating, Morningglory: 98
[5]; [11]
  Plant response rating, Morningglory: 100
[5]; [12]
  Plant response rating, Morningglory: 100
[5]; [13]
  Plant response rating, Morningglory: 35
[5]; [14]
  Plant response rating, Morningglory: 55
[5]; [15]
  Plant response rating, Morningglory: 100
[5]; [16]
  Plant response rating, Morningglory: 100
[6]; [9]
  Plant response rating, Velvetleaf: 75
[6]; [10]
  Plant response rating, Velvetleaf: 85
[6]; [11]
  Plant response rating, Velvetleaf: 85
[6]; [12]
  Plant response rating, Velvetleaf: 90
[6]; [13]
  Plant response rating, Velvetleaf: 60
[6]; [14]
  Plant response rating, Velvetleaf: 100
[6]; [15]
  Plant response rating, Velvetleaf: 100
[6]; [16]
  Plant response rating, Velvetleaf: 100
Barnyardgrass; [18]
  Plant response rating, Barnyardgrass: 20
Barnyardgrass; [19]
  Plant response rating, Barnyardgrass: 55
Barnyardgrass; 250 g ai/ha, scale 0 to 100
  Plant response rating, Barnyardgrass: 95
Waterhemp [7]
  Plant response rating, Waterhemp: 98
Oilseed Rape
  Plant response rating, Oilseed Rape: 95
Waterhemp [8]
  Plant response rating, Waterhemp: 85

## CCc1nn(-c2ccc(F)c(F)c2)nc1Oc1ccnc(C(F)(F)F)c1 [Compound 171]
Rice (Oryza sativa)
  Plant response rating, Rice (0 to 100 scale, 0 is no effect, 100 is complete control): 60
[1]
  Plant response rating, Sedge, Umbrella (0 to 100 scale, 0 is no effect, 100 is complete control): 85
[2]; [9]
  Plant response rating, Wheat: 5
[2]; [10]
  Plant response rating, Wheat: 10
[2]; [11]
  Plant response rating, Wheat: 20
[2]; [12]
  Plant response rating, Wheat: 20
[2]; [13]
  Plant response rating, Wheat: 0
[2]; [14]
  Plant response rating, Wheat: 0
[2]; [15]
  Plant response rating, Wheat: 5
[2]; [16]
  Plant response rating, Wheat: 45
[3]; [9]
  Plant response rating, Galium: 70
[3]; [10]
  Plant response rating, Galium: 75
[3]; [11]
  Plant response rating, Galium: 80
[3]; [12]
  Plant response rating, Galium: 80
[3]; [13]
  Plant response rating, Galium: 5
[3]; [14]
  Plant response rating, Galium: 98
[3]; [15]
  Plant response rating, Galium: 98
[3]; [16]
  Plant response rating, Galium: 100
Corn (Zea mays); [9]
  Plant response rating, Corn: 15
Corn (Zea mays); [10]
  Plant response rating, Corn: 15
Corn (Zea mays); [11]
  Plant response rating, Corn: 15
Corn (Zea mays); [17]
  Plant response rating, Corn: 15
Corn (Zea mays); [13]
  Plant response rating, Corn: 0
Corn (Zea mays); [14]
  Plant response rating, Corn: 0
Corn (Zea mays); [15]
  Plant response rating, Corn: 5
Corn (Zea mays); [16]
  Plant response rating, Corn: 25
[4]; [9]
  Plant response rating, Lambsquarters: 75
[4]; [10]
  Plant response rating, Lambsquarters: 75
[4]; [11]
  Plant response rating, Lambsquarters: 95
[4]; [12]
  Plant response rating, Lambsquarters: 95
[4]; [13]
  Plant response rating, Lambsquarters: 100
[4]; [14]
  Plant response rating, Lambsquarters: 100
[4]; [16]
  Plant response rating, Lambsquarters: 100
[5]; [9]
  Plant response rating, Morningglory: 60
[5]; [10]
  Plant response rating, Morningglory: 65
[5]; [11]
  Plant response rating, Morningglory: 98
[5]; [13]
  Plant response rating, Morningglory: 0
[5]; [14]
  Plant response rating, Morningglory: 20
[5]; [15]
  Plant response rating, Morningglory: 25
[5]; [16]
  Plant response rating, Morningglory: 25
[6]; [9]
  Plant response rating, Velvetleaf: 25
[6]; [10]
  Plant response rating, Velvetleaf: 25
[6]; [11]
  Plant response rating, Velvetleaf: 45
[6]; [12]
  Plant response rating, Velvetleaf: 75
[6]; [13]
  Plant response rating, Velvetleaf: 5
[6]; [14]
  Plant response rating, Velvetleaf: 25
[6]; [15]
  Plant response rating, Velvetleaf: 55
[6]; [16]
  Plant response rating, Velvetleaf: 65
Barnyardgrass; [18]
  Plant response rating, Barnyardgrass: 10
Barnyardgrass; [19]
  Plant response rating, Barnyardgrass: 15
Barnyardgrass; 250 g ai/ha, scale 0 to 100
  Plant response rating, Barnyardgrass: 75
Waterhemp [7]
  Plant response rating, Waterhemp: 75
Oilseed Rape
  Plant response rating, Oilseed Rape: 50
Waterhemp [8]
  Plant response rating, Waterhemp: 70
